# Data published in patent US8536226B2, “Methods for the treatment of dermatological disorders” (Janssen Pharmaceutica, NV, priority 2008, dated 2013).
# “And” between values parts separate entries of the source, which are not always exact repeats. Identical values can stand only once. Like-named read-outs stand apart in the source and are kept apart here.
# Columns and labels:
# [1] = tested on: human sebocytes; test: cells; format: cell-based
# [2] = tested on: human sebocytes; test: cells; format: cell-based; conditions: read-out: % Inhibition (Nile Red Fluorescence)
# [3] = target: T1, Melanocortin-5 (MC-5) receptor (Homo sapiens, UniProt P33032); test: MC-5 receptor binding assay, MDS-PANLABS (human recombinant HEK-293 cells, [125]NDP-α-MSH); set-up: host or cells: HEK-293 cells
# Protocol: (§1) Binding to the MC-5 receptor was measured in two assays, performed by CEREP and MDS-PANLABS.
# The assay run by MDS-PANLABS (Catalog Ref #251400) used human recombinant HEK-293 cells, ^[125]NDP-α-MSH as the ligand (0.035 nM), various concentrations of the compound of formula (I), incubating at 37° C. for 60 min, and detecting binding via scintillation counting. Specific ligand binding to the receptors was defined as the difference between the total binding and the nonspecific binding determined in the presence of an excess (3 μM) of unlabelled NDP-α-MSH. IC50 values were determined by a non-linear, least squares regression analysis using Data Analysis Toolbox. Inhibition constants (Ki) were calculated using the equation of Cheng and Prusoff (Biochem. Pharmacol. 22:3099, 1973) using the observed IC50 of the tested compound, the concentration of radioligand employed in the assay, and the historical values for the Kd of the ligand (obtained experimentally at MDS Pharma Services).
# The compound of formula (I) was tested for binding to the MC-5 receptor in both the CEREP and MDS-PANLABS assays with results as listed in Table 3 below.
# [4] = target: T1, Melanocortin-5 (MC-5) receptor; test: MC-5 receptor binding assay, CEREP (human recombinant CHO cells, [125]NDP-α-MSH)
# Protocol: as §1
# The assay run by CEREP (Catalog Ref. #889-5h) used human recombinant CHO cells, ^[125]NDP-α-MSH as the ligand (0.05 nM concentration), NDP-α-MSH as the non-specific (1 μM), incubating at 37° C. for 60 min and detecting binding via scintillation counting. The specific ligand binding to the receptors was defined as the difference between the total binding and the nonspecific binding determined in the presence of an excess of unlabelled ligand. The IC50 values (the concentration causing a half-maximal inhibition of control specific binding) and Hill coefficients were determined by non-linear regression analysis of the competition curves generated with mean replicate values using Hill equation curve fitting (Y=D+[(A−D)/(1+(C/C50)^nH)], where Y=specific binding, D=minimum specific binding, A=maximum specific binding, C=compound concentration, C50=IC50, and nH=slope factor). This analysis was performed using software developed at CEREP (Hill software) and validated by comparison with data generated by the commercial software SigmaPlot® 4.0 for Windows® (© 1997 by SPSS Inc.). The inhibition constants (Ki) were calculated using the Cheng Prusoff equation (Ki=IC50/(1+(L/KD)), where L=concentration of radioligand in the assay, and KD=affinity of the radioligand for the receptor). […]
# [5] = tested on: rat adipocytes; conditions: read-out: EC50, lipolytic activity; cited from earlier work
# [6] = tested on: rabbit adipocytes; conditions: read-out: EC50, lipolytic activity; cited from earlier work
# [7] = tested on: isolated human adipocytes; conditions: concentrations as high as 1 μM; cited from earlier work
# [8] = tested on: isolated non-human primate adipocytes; conditions: concentrations as high as 1 μM; cited from earlier work
# T1 sequence (P33032 whole entry): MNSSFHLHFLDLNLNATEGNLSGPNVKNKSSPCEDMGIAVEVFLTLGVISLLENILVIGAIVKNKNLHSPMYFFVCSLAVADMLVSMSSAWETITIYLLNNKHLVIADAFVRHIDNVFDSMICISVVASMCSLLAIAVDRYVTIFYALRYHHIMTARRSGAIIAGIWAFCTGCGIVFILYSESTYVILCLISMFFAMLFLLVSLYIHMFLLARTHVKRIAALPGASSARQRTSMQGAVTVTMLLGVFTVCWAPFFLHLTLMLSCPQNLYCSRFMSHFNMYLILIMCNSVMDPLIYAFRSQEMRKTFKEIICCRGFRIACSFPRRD
compound,measurement,setting,value
"COc1ccccc1N/C(=N\C(=S)Nc1ccccc1)c1ccccc1OC [Compound (I), 1-[(2-methoxy-phenyl)-(2-methoxy-phenylamino)-methylene]-3-phenyl-thiourea]",inhibition at 0.8 µM,"[1]; read-out: % Inhibition of Sebaceous Lipid Synthesis, cholesterol esters, Study 1, @ 0.8 μM",30%
same,inhibition at 1.2 µM,"[1]; read-out: % Inhibition of Sebaceous Lipid Synthesis, cholesterol esters, Study 1, @ 1.2 μM",35%
same,inhibition at 1.6 µM,"[1]; read-out: % Inhibition of Sebaceous Lipid Synthesis, cholesterol esters, Study 1, @ 1.6 μM",45%
same,inhibition at 3.2 µM,"[1]; read-out: % Inhibition of Sebaceous Lipid Synthesis, cholesterol esters, Study 1, @ 3.2 μM",60%
same,inhibition at 0.4 µM,"[1]; read-out: % Inhibition of Sebaceous Lipid Synthesis, cholesterol esters, Study 2, @ 0.4 μM",44%
same,inhibition at 0.8 µM,"[1]; read-out: % Inhibition of Sebaceous Lipid Synthesis, cholesterol esters, Study 2, @ 0.8 μM",64%
same,inhibition at 1.2 µM,"[1]; read-out: % Inhibition of Sebaceous Lipid Synthesis, cholesterol esters, Study 2, @ 1.2 μM",72%
same,inhibition at 1.6 µM,"[1]; read-out: % Inhibition of Sebaceous Lipid Synthesis, cholesterol esters, Study 2, @ 1.6 μM",74%
same,inhibition at 3.2 µM,"[1]; read-out: % Inhibition of Sebaceous Lipid Synthesis, cholesterol esters, Study 2, @ 3.2 μM",86%
same,inhibition at 0.8 µM,"[1]; read-out: % Inhibition of Sebaceous Lipid Synthesis, squalene, Study 1, @ 0.8 μM",50%
same,inhibition at 1.2 µM,"[1]; read-out: % Inhibition of Sebaceous Lipid Synthesis, squalene, Study 1, @ 1.2 μM",55%
same,inhibition at 1.6 µM,"[1]; read-out: % Inhibition of Sebaceous Lipid Synthesis, squalene, Study 1, @ 1.6 μM",62%
same,inhibition at 3.2 µM,"[1]; read-out: % Inhibition of Sebaceous Lipid Synthesis, squalene, Study 1, @ 3.2 μM",76%
same,inhibition at 0.4 µM,"[1]; read-out: % Inhibition of Sebaceous Lipid Synthesis, squalene, Study 2, @ 0.4 μM",64%
same,inhibition at 0.8 µM,"[1]; read-out: % Inhibition of Sebaceous Lipid Synthesis, squalene, Study 2, @ 0.8 μM",88%
same,inhibition at 1.2 µM,"[1]; read-out: % Inhibition of Sebaceous Lipid Synthesis, squalene, Study 2, @ 1.2 μM",92%
same,inhibition at 1.6 µM,"[1]; read-out: % Inhibition of Sebaceous Lipid Synthesis, squalene, Study 2, @ 1.6 μM",94%
same,inhibition at 3.2 µM,"[1]; read-out: % Inhibition of Sebaceous Lipid Synthesis, squalene, Study 2, @ 3.2 μM",96%
same,inhibition at 0.8 µM,"[1]; read-out: % Inhibition of Sebaceous Lipid Synthesis, triglycerides, Study 1, @ 0.8 μM",0%
same,inhibition at 1.2 µM,"[1]; read-out: % Inhibition of Sebaceous Lipid Synthesis, triglycerides, Study 1, @ 1.2 μM",10%
same,inhibition at 1.6 µM,"[1]; read-out: % Inhibition of Sebaceous Lipid Synthesis, triglycerides, Study 1, @ 1.6 μM",8%
same,inhibition at 3.2 µM,"[1]; read-out: % Inhibition of Sebaceous Lipid Synthesis, triglycerides, Study 1, @ 3.2 μM",2%
same,inhibition at 0.4 µM,"[1]; read-out: % Inhibition of Sebaceous Lipid Synthesis, triglycerides, Study 2, @ 0.4 μM",22%
same,inhibition at 0.8 µM,"[1]; read-out: % Inhibition of Sebaceous Lipid Synthesis, triglycerides, Study 2, @ 0.8 μM",20%
same,inhibition at 1.2 µM,"[1]; read-out: % Inhibition of Sebaceous Lipid Synthesis, triglycerides, Study 2, @ 1.2 μM",16%
same,inhibition at 1.6 µM,"[1]; read-out: % Inhibition of Sebaceous Lipid Synthesis, triglycerides, Study 2, @ 1.6 μM",14%
same,inhibition at 3.2 µM,"[1]; read-out: % Inhibition of Sebaceous Lipid Synthesis, triglycerides, Study 2, @ 3.2 μM",6%
same,inhibition at 0.4 µM,[2],24%
same,inhibition at 0.6 µM,[2],25%
same,inhibition at 0.8 µM,[2],39%
same,inhibition at 1 µM,[2],45%
same,inhibition at 1.2 µM,[2],43%
same,IC50,[3]; MDS-PANLABS MEAN ± SD,2.35 ± 1.67 µM
same,Ki,[3]; MDS-PANLABS MEAN ± SD,2.2 ± 1.56 µM
same,Ki,"[3]; MDS-PANLABS assay, Cheng Prusoff, single runs",1.1 µM and 3.31 µM
same,IC50,"[3]; MDS-PANLABS assay, HEK-293 cells, 0.035 nM radioligand, single runs",1.17 µM and 3.53 µM
same,IC50,"[4]; CHO cells, 0.05 nM radioligand",57 µM
same,Ki,[4]; Cheng Prusoff,53 µM
"ACTH: melanocortin neuropeptide arising from pro-opiomelanocortin (POMC) (SYSMEHFRWGKPVGKKRRPVKVYPNGAEDESAEAFPLEF; Corticotropin; UniProt P01189 138-176, looked up)",EC50,[5],0.00134 µM
same,EC50,[6],0.0164 µM
same,effect on lipolysis,[7],very little effect
same,effect on lipolysis,[8],very little effect
αMSH,EC50,[6],0.0037 µM
